Measured values as given in patent US9629887B1, “Control of acid reflux with botanicals” (Biotics Research Corporation, priority 2014, dated 2017).
Counter-ions that a name gives are not always drawn.

Tested on: patients with acid reflux / GI tract symptoms
Test: Case histories of patients treated with HCl-Ease capsules
Type: in vivo, human
Settings: previous treatment prescribed elsewhere, patient history
Description: The invention is further illustrated by the following case histories, in which the inventive capsules as described above as the specific embodiment are referred to as HCl-Ease.

SMILES | outcome of other treatment as stated by patient
COc1ccc2[nH]c([S+]([O-])Cc3ncc(C)c(OC)c3C)nc2c1 (centres unmarked) [Prilosec] | didn't help much
C[N+](C)(C)CC(=O)O [Betaine HCL] | greatly increased their symptoms
